Columns and labels:
Assay type in all cases: in vivo
[1] = test system: velvetleaf (Abutilon theophrasti); test: Test A postemergence, velvetleaf; settings: visual rating after approx. 10 d, 0 to 100 scale, 0 no effect, 100 complete control
From the text: (§1) Seeds of plant species selected from barnyardgrass (Echinochloa crus-galli), crabgrass (large crabgrass, Digitaria sanguinalis), kochia (Kochia scoparia), ragweed (common ragweed, Ambrosia elatior), morningglory (Ipomoea spp.), velvetleaf (Abutilon theophrasti), ryegrass, Italian (Italian ryegrass, Lolium multiflorum), foxtail, giant (giant foxtail, Setaria faberii), wheat (Triticum aestivum), corn (Zea mays), and pigweed (Amaranthus retroflexus), were planted into a blend of loam soil and sand and treated preemergence with a directed soil spray using test chemicals formulated in a non-phytotoxic solvent mixture which included a surfactant. At the same time, plants selected from these crop and weed species and also blackgrass (Alopecurus myosuroides), and galium (catchweed bedstraw, Galium aparine), were planted in pots containing the same blend of loam soil and sand and treated with postemergence applications of test chemicals formulated in the same manner. Plants ranged in height from 2 to 10 cm and were in the one- to two-leaf stage for the postemergence treatment. Treated plants and untreated controls were maintained in a greenhouse for approximately 10 d, after which time all treated plants were compared to untreated controls and visually evaluated for injury. Plant response ratings, summarized in Table A, are based on a 0 to 100 scale where 0 is no effect and 100 is complete control. A dash (-) response means no test result.

[2] = test system: morningglory (Ipomoea spp.); test: Test A preemergence, morningglory; settings: visual rating after approx. 10 d, 0 to 100 scale, 0 no effect, 100 complete control
From the text: as §1

[3] = test system: morningglory (Ipomoea spp.); test: Test A postemergence, morningglory; settings: visual rating after approx. 10 d, 0 to 100 scale, 0 no effect, 100 complete control
From the text: as §1

[4] = test system: barnyardgrass (Echinochloa crus-galli); test: Test A preemergence, barnyardgrass; settings: visual rating after approx. 10 d, 0 to 100 scale, 0 no effect, 100 complete control
Procedure, shortened: (§2)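 Pre: seeds planted in loam–sand mix, soil sprayed directly with formulated test chemical. Post: seedlings at 1–2 leaves (2–10 cm) sprayed. Kept ~10 d in greenhouse; injury judged by eye against untreated plants, 0 = none, 100 = complete control.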

corn (Zea mays) [5] = test: Test A preemergence, corn; settings: visual rating after approx. 10 d, 0 to 100 scale, 0 no effect, 100 complete control
From the text: as §1

[6] = test system: wheat (Triticum aestivum); test: Test A postemergence, wheat; settings: visual rating after approx. 10 d, 0 to 100 scale, 0 no effect, 100 complete control
Procedure, shortened: as §2

[7] = test system: barnyardgrass (Echinochloa crus-galli); test: Test A postemergence, barnyardgrass; settings: visual rating after approx. 10 d, 0 to 100 scale, 0 no effect, 100 complete control
Procedure, shortened: as §2

[8] = test system: foxtail, giant (giant foxtail, Setaria faberii); test: Test A preemergence, giant foxtail; settings: visual rating after approx. 10 d, 0 to 100 scale, 0 no effect, 100 complete control
Procedure, shortened: as §2

corn (Zea mays) [9] = test: Test A postemergence, corn; settings: 1000 g ai/ha, visual rating after approx. 10 d, 0 to 100 scale, 0 no effect, 100 complete control
Procedure, shortened: as §2

[10] = test system: foxtail, giant (giant foxtail, Setaria faberii); test: Test A postemergence, giant foxtail; settings: visual rating after approx. 10 d, 0 to 100 scale, 0 no effect, 100 complete control
Procedure, shortened: as §2

[11] = test system: crabgrass (large crabgrass, Digitaria sanguinalis); test: Test A postemergence, crabgrass; settings: visual rating after approx. 10 d, 0 to 100 scale, 0 no effect, 100 complete control
From the text: as §1

[12] = test system: wheat (Triticum aestivum); test: Test A preemergence, wheat; settings: visual rating after approx. 10 d, 0 to 100 scale, 0 no effect, 100 complete control
From the text: as §1

[13] = test system: crabgrass (large crabgrass, Digitaria sanguinalis); test: Test A preemergence, crabgrass; settings: visual rating after approx. 10 d, 0 to 100 scale, 0 no effect, 100 complete control
From the text: as §1

[14] = test system: velvetleaf (Abutilon theophrasti); test: Test A preemergence, velvetleaf; settings: visual rating after approx. 10 d, 0 to 100 scale, 0 no effect, 100 complete control
From the text: as §1

[15] = test system: pigweed (Amaranthus retroflexus); test: Test A preemergence, pigweed; settings: visual rating after approx. 10 d, 0 to 100 scale, 0 no effect, 100 complete control
Procedure, shortened: as §2

[16] = test system: pigweed (Amaranthus retroflexus); test: Test A postemergence, pigweed; settings: visual rating after approx. 10 d, 0 to 100 scale, 0 no effect, 100 complete control
Procedure, shortened: as §2

[17] = test system: barnyardgrass (Echinochloa crus-galli); test: Test B flooded paddy test, barnyardgrass; settings: 250 g ai/ha; applied to paddy water at 2-leaf stage; 13 to 15 d; scale 0 no effect to 100 complete control
Procedure, shortened: (§3)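 Plants at the 2-leaf stage were flooded to 3 cm above soil, and test compounds were applied directly into the paddy water, which was held at that depth throughout. After 13 to 15 d in a greenhouse, injury was rated visually against untreated controls on a 0–100 scale (0 no effect, 100 complete control).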

[18] = test system: sedge, umbrella (small-flower umbrella sedge, Cyperus difformis); test: Test B flooded paddy test, umbrella sedge; settings: 250 g ai/ha; applied to paddy water at 2-leaf stage; 13 to 15 d; scale 0 no effect to 100 complete control
Procedure, shortened: as §3

[19] = test system: ducksalad (Heteranthera limosa); test: Test B flooded paddy test, ducksalad; settings: 250 g ai/ha; applied to paddy water at 2-leaf stage; 13 to 15 d; scale 0 no effect to 100 complete control
Procedure, shortened: as §3

rice (Oryza sativa) = test: Test B flooded paddy test, rice; settings: 250 g ai/ha; applied to paddy water at 2-leaf stage; 13 to 15 d; scale 0 no effect to 100 complete control
Procedure, shortened: as §3

O=C(Nc1ccccc1Cl)C1C(=O)OCC1c1ccc(F)cc1 (racemic) [Compound 1]
0: Plant response rating, Velvetleaf ([1]; 1000 g ai/ha) | Plant response rating, Morningglory ([2]; 1000 g ai/ha) | Plant response rating, Morningglory ([3]; 1000 g ai/ha) | Plant response rating, Barnyardgrass ([4]; 1000 g ai/ha) | Plant response rating, Corn (corn (Zea mays) [5]; 1000 g ai/ha) | Plant response rating, Wheat ([6]; 1000 g ai/ha) | Plant response rating, Corn (corn (Zea mays) [9]) | Plant response rating, Wheat ([12]; 1000 g ai/ha) | Plant response rating, Velvetleaf ([14]; 1000 g ai/ha) | Plant response rating, Pigweed ([15]; 1000 g ai/ha)
20: Plant response rating, Barnyardgrass ([7]; 1000 g ai/ha) | Plant response rating, Pigweed ([16]; 1000 g ai/ha)
60: Plant response rating, Crabgrass ([11]; 1000 g ai/ha)
70: Plant response rating, Crabgrass ([13]; 1000 g ai/ha)
40: Plant response rating, Foxtail, Giant ([8]; 1000 g ai/ha) | Plant response rating, Foxtail, Giant ([10]; 1000 g ai/ha)

O=C(Nc1ccccc1F)C1C(=O)OCC1c1ccc(F)cc1 (racemic) [Compound 2]
80: Plant response rating, Crabgrass ([13]; 1000 g ai/ha)
50: Plant response rating, Foxtail, Giant ([8]; 1000 g ai/ha)
0: Plant response rating, Velvetleaf ([1]; 1000 g ai/ha) | Plant response rating, Morningglory ([2]; 1000 g ai/ha) | Plant response rating, Morningglory ([3]; 1000 g ai/ha) | Plant response rating, Corn (corn (Zea mays) [5]; 1000 g ai/ha) | Plant response rating, Wheat ([6]; 1000 g ai/ha) | Plant response rating, Barnyardgrass ([7]; 1000 g ai/ha) | Plant response rating, Corn (corn (Zea mays) [9]) | Plant response rating, Foxtail, Giant ([10]; 1000 g ai/ha) | Plant response rating, Wheat ([12]; 1000 g ai/ha) | Plant response rating, Velvetleaf ([14]; 1000 g ai/ha) | Plant response rating, Pigweed ([15]; 1000 g ai/ha) | Plant response rating, Pigweed ([16]; 1000 g ai/ha)
30: Plant response rating, Barnyardgrass ([4]; 1000 g ai/ha)
40: Plant response rating, Crabgrass ([11]; 1000 g ai/ha)

O=C(Nc1ccccc1Cl)C1C(=O)OCC1c1ccc(F)c(F)c1 (racemic) [Compound 3]
80: Plant response rating, Foxtail, Giant ([8]; 500 g ai/ha)
70: Plant response rating, Foxtail, Giant ([8]; 125 g ai/ha) | Plant response rating, Crabgrass ([11]; 500 g ai/ha)
0: Plant response rating, Flood, Barnyardgrass [17] | Plant response rating, Velvetleaf ([1]; 125 g ai/ha) | Plant response rating, Velvetleaf ([1]; 500 g ai/ha) | Plant response rating, Morningglory ([2]; 125 g ai/ha) | Plant response rating, Morningglory ([2]; 500 g ai/ha) | Plant response rating, Morningglory ([3]; 125 g ai/ha) | Plant response rating, Morningglory ([3]; 500 g ai/ha) | Plant response rating, Barnyardgrass ([4]; 125 g ai/ha) | Plant response rating, Corn (corn (Zea mays) [5]; 125 g ai/ha) | Plant response rating, Corn (corn (Zea mays) [5]; 500 g ai/ha) | Plant response rating, Wheat ([6]; 125 g ai/ha) | Plant response rating, Wheat ([6]; 500 g ai/ha) | Plant response rating, Barnyardgrass ([7]; 125 g ai/ha) | Plant response rating, Barnyardgrass ([7]; 500 g ai/ha) | Plant response rating, Flood, Sedge, Umbrella [18] | Plant response rating, Wheat ([12]; 125 g ai/ha) | Plant response rating, Wheat ([12]; 500 g ai/ha) | Plant response rating, Velvetleaf ([14]; 125 g ai/ha) | Plant response rating, Velvetleaf ([14]; 500 g ai/ha) | Plant response rating, Flood, Ducksalad [19] | Plant response rating, Pigweed ([15]; 125 g ai/ha) | Plant response rating, Pigweed ([15]; 500 g ai/ha) | Plant response rating, Flood, Rice (rice (Oryza sativa)) | Plant response rating, Pigweed ([16]; 125 g ai/ha) | Plant response rating, Pigweed ([16]; 500 g ai/ha)
40: Plant response rating, Crabgrass ([13]; 125 g ai/ha)
50: Plant response rating, Foxtail, Giant ([10]; 125 g ai/ha) | Plant response rating, Crabgrass ([13]; 500 g ai/ha)
30: Plant response rating, Barnyardgrass ([4]; 500 g ai/ha)
60: Plant response rating, Foxtail, Giant ([10]; 500 g ai/ha) | Plant response rating, Crabgrass ([11]; 125 g ai/ha)

O=C(Nc1ccccc1F)C1C(=O)OCC1c1ccc(F)c(F)c1 (racemic) [Compound 4]
80: Plant response rating, Foxtail, Giant ([8]; 1000 g ai/ha)
90: Plant response rating, Crabgrass ([11]; 1000 g ai/ha) | Plant response rating, Crabgrass ([13]; 1000 g ai/ha)
70: Plant response rating, Barnyardgrass ([4]; 1000 g ai/ha) | Plant response rating, Barnyardgrass ([7]; 1000 g ai/ha) | Plant response rating, Foxtail, Giant ([10]; 1000 g ai/ha)
20: Plant response rating, Flood, Barnyardgrass [17]
0: Plant response rating, Velvetleaf ([1]; 1000 g ai/ha) | Plant response rating, Morningglory ([2]; 1000 g ai/ha) | Plant response rating, Morningglory ([3]; 1000 g ai/ha) | Plant response rating, Corn (corn (Zea mays) [5]; 1000 g ai/ha) | Plant response rating, Wheat ([6]; 1000 g ai/ha) | Plant response rating, Flood, Sedge, Umbrella [18] | Plant response rating, Wheat ([12]; 1000 g ai/ha) | Plant response rating, Velvetleaf ([14]; 1000 g ai/ha) | Plant response rating, Flood, Ducksalad [19] | Plant response rating, Pigweed ([15]; 1000 g ai/ha) | Plant response rating, Pigweed ([16]; 1000 g ai/ha)
15: Plant response rating, Flood, Rice (rice (Oryza sativa))

Cc1ccccc1NC(=O)C1C(=O)OCC1c1ccc(F)cc1 (racemic) [Compound 5]
60: Plant response rating, Barnyardgrass ([4]; 1000 g ai/ha) | Plant response rating, Foxtail, Giant ([10]; 1000 g ai/ha)
50: Plant response rating, Barnyardgrass ([7]; 1000 g ai/ha)
70: Plant response rating, Foxtail, Giant ([8]; 1000 g ai/ha)
0: Plant response rating, Velvetleaf ([1]; 1000 g ai/ha) | Plant response rating, Morningglory ([2]; 1000 g ai/ha) | Plant response rating, Morningglory ([3]; 1000 g ai/ha) | Plant response rating, Corn (corn (Zea mays) [5]; 1000 g ai/ha) | Plant response rating, Wheat ([6]; 1000 g ai/ha) | Plant response rating, Corn (corn (Zea mays) [9]) | Plant response rating, Wheat ([12]; 1000 g ai/ha) | Plant response rating, Velvetleaf ([14]; 1000 g ai/ha) | Plant response rating, Pigweed ([15]; 1000 g ai/ha) | Plant response rating, Pigweed ([16]; 1000 g ai/ha)
80: Plant response rating, Crabgrass ([11]; 1000 g ai/ha) | Plant response rating, Crabgrass ([13]; 1000 g ai/ha)

O=C(Nc1ccccc1C(F)(F)F)C1C(=O)OCC1c1ccc(F)cc1 (stereo not shown) [Compound 6]
20: Plant response rating, Barnyardgrass ([4]; 1000 g ai/ha) | Plant response rating, Barnyardgrass ([7]; 1000 g ai/ha)
0: Plant response rating, Flood, Barnyardgrass [17] | Plant response rating, Velvetleaf ([1]; 1000 g ai/ha) | Plant response rating, Morningglory ([2]; 1000 g ai/ha) | Plant response rating, Morningglory ([3]; 1000 g ai/ha) | Plant response rating, Corn (corn (Zea mays) [5]; 1000 g ai/ha) | Plant response rating, Wheat ([6]; 1000 g ai/ha) | Plant response rating, Corn (corn (Zea mays) [9]) | Plant response rating, Flood, Sedge, Umbrella [18] | Plant response rating, Wheat ([12]; 1000 g ai/ha) | Plant response rating, Velvetleaf ([14]; 1000 g ai/ha) | Plant response rating, Flood, Ducksalad [19] | Plant response rating, Pigweed ([15]; 1000 g ai/ha) | Plant response rating, Flood, Rice (rice (Oryza sativa)) | Plant response rating, Pigweed ([16]; 1000 g ai/ha)
80: Plant response rating, Foxtail, Giant ([8]; 1000 g ai/ha) | Plant response rating, Foxtail, Giant ([10]; 1000 g ai/ha) | Plant response rating, Crabgrass ([11]; 1000 g ai/ha) | Plant response rating, Crabgrass ([13]; 1000 g ai/ha)

— US10582709B2, “Butyrolactones as herbicides” (FMC Corporation, priority 2015, dated 2020)
